Values of other authors as cited in patent US7279279B2, “Compositions and methods for determining anti-viral drug susceptibility and resistance and anti-viral drug screening” (Monogram Biosciences, Inc., priority 1996, dated 2007).

Tested on: HIV
Conditions: background statement on drug treatment of HIV; no test conditions given

Q: Which reduce virus replication does the source give for `Cc1cn([C@H]2C[C@H](N=[N+]=[N-])[C@@H](CO)O2)c(=O)[nH]c1=O` [AZT, zidovudine] here?
A: about 90%
